This assay concerns the target Gamma-aminobutyric acid receptor subunit alpha-1 (Rattus norvegicus, UniProt P62813).

The structures appear in SMILES notation. Where “and” joins values, the source holds several entries; their conditions need not be identical. Identical values can stand only once.

Chain of Gamma-aminobutyric acid receptor subunit alpha-1 (P62813 whole entry): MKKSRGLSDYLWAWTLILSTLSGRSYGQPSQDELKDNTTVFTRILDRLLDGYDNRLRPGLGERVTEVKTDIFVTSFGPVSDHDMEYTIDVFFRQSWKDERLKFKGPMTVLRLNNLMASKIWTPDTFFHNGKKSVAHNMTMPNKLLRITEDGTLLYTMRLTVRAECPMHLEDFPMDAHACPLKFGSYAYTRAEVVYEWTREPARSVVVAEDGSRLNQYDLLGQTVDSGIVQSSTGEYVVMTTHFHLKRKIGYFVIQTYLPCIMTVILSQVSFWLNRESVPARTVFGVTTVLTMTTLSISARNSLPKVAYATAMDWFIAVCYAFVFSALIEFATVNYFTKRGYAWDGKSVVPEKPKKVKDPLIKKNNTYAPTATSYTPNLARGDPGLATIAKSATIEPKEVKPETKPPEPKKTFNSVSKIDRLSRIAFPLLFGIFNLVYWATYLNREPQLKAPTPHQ

In turn, `CCOC(=O)c1cc2c(cn1)[nH]c1ccccc12` had a Ki of 2920 nM.

For the compound `OCCN(CCO)c1nc(N2CCCCC2)c2nc(N(CCO)CCO)nc(N3CCCCC3)c2n1` [Dipyridamine], the inhibition constant (Ki) was 87.9 nM and 162 nM.

The Ki is a measure of affinity in units of concentration, obtained from inhibition or displacement. Read a low Ki as tighter binding.

The record behind these values is BindingDB's records for doi:10.1016/s0006-2952(97)00433-4 (Tokyo Dental College, 1998).
